For this experiment, the system named is Aedes aegypti UGAL mosquito strain (adult female). In words: Mortality assay on treated filter paper. Conditions: 0.5% solution; within the first 20 minutes; FIG. 4. The class given is in vivo. How it is done: A mortality assay was employed to evaluate mosquito mortality in response to exposure to eleven different treatments including water, a series of NKT dilutions, and 0.5% permethrin. The Aedes aegypti UGAL mosquito strain (adult female) was used in this example.
The experiments were conducted in a well-lit, temperature- and humidity-controlled room. The room was 22-24° C. with humidity at 40-45%. To conduct these experiments, each treatment had four replicates under the same conditions. A filter paper, 10 cm in diameter, was treated with 340 μl of an experimental or control solution using a standardized spray bottle (113.3 μl/spray) that was held approximately 5 cm away from the paper. The treated filter paper was placed into an open petri dish with a diameter of 10 cm. […] Female mosquitoes were then anesthetized on ice for five minutes. After 60 minutes, 10 ice-anesthetized adult female mosquitoes were transferred onto the treated paper using soft featherweight forceps. The petri dish lid was placed on top, and the mosquitoes were given two minutes to revive before the timer was started. Mosquitoes were then monitored every five minutes. Mosquitoes on their back were considered knocked down and marked as deceased in these experiments. […] Log-rank (Mantel-Cox) test was performed for comparison of survival curves.

Take `CC1(C)C(C=C(Cl)Cl)C1C(=O)OCc1cccc(Oc2ccccc2)c1` (stereo not shown) [permethrin]: the knockdown effect result is given as “strong immediate knockdown effect”.
